In patent US20070155698A1, “Oxazaborolidines as bacteria effectors” (priority 2003, published 2007):
Converted amounts (≈) assume the structure as drawn. Like-named read-outs stand apart in the source and are kept apart here.

How the values were obtained:
S. mutans ATCC 27351 = experiment: Minimal inhibitory concentration (MIC), turbidity of overnight growth; type: cell-based; details: for MIC: Streptococcus mutans, read-out: MIC Mean
Method: Sterile microculture dishes containing multiple wells were used to determine the minimal inhibitory concentration MIC) of eight derivatives of oxazborolidines. Each well contained 120 μl of brain heart infusion medium, 15 μl of an overnight suspension of S. mutans ATCC 27351 adjusted to 1 OD540 nm and 15 μl of the tested compound. Each compound was tested at five different concentrations between 0-50 mM. Each experiment was repeated twice. These cultures were incubated at 37° C. in atmosphere enriched in 5% CO2 for 24 hours. Bacteria growth was determined as turbidity of the over night growth and was determined by computerized ELISA reader (Thermomax microplate reader, Molecular Devices, USA) at 650 nm. Control cultures of bacteria with no oxazaborolidines added and media broth with the oxzaborilidines added but with no bacteria were conducted.

[1] = tested on: bacterial adhesion to hydroxyapatite (HA) beads; experiment: Adhesion of radioactively labeled bacteria to hydroxyapatite beads; type: cell-based; details: 60 mM
Method: 40 mg samples of hydroxyapatite (HA) beads (Ceramic hydroxyapatite type I, 80 um, Bio-Rad Laboratories, Hercules, Calif., USA)) (surface area, 0.63 cm^2/mg) were equilibrated with 3 washes of buffered KCl to which 250 μl of labeled radioactive bacteria (prepared as described above), 400 μl of the tested boronic compound and 50 μl of 700 mM sucrose (in KCl buffer solution) were added. The mixture was incubated for 60 min at 37 C with gentle rotation. At the end of the incubation period, the beads were washed 3 times with buffered KCl for removal of unbound components, especially the non-adsorbed labeled bacteria, and then rinsed with 2 ml ethanol into vials containing 10 ml scintillation fluid (Ecoscint A, National Diagnostics, Manville, N.J.). The amount of radioactively labeled bacteria adsorbed onto the HA beads was measured by scintillation counting (BETAmatic scintillation counter (Koutron®, Basel, Switzerland). Results are expressed as percent of bacterial adhesion in comparison to a control group containing no agent.

[2] = Effect of pH on the oxazaborolidine derivatives (11B NMR); type: physicochemical; details: pH=10.8
Excerpt: At pH=10.8, the free n-butylboronic acid has a chemical shift of 19.974 ppm, while BNO3, the B-butyl containing derivative gives two peaks, one at 24.868 ppm (90%) which is the intermediate and a peak at 6.8 ppm (10%) that belongs to the mentioned above complex. At further basic conditions, a peak at 5.2 ppm exist which indicate a complete conversion to an ate-complex moiety.
On the other hand, the B-phenyl containing derivatives are converted to the ate-complex once they are fully dissolved in H2O, the ate-complex appears at 5.461 ppm in the ^11B NMR.

[3] = tested on: AI-2 reporter strain Vibrio harveyi BB170; experiment: Inhibition of AI-2-induced bioluminescence (quorum sensing); type: cell-based; details: added together with exogenous AI-2
Method: Bright overnight culture was diluted 1:5000 and the bioluminescence was traced along growth of the diluted bacterial culture at the presence of AI-2 which was added at start of the bacterial growth in the induced concentration. BNO-2 in tested concentrations was added at start of the bacterial growth. The residual bioluminescence is expressed as part of maximal, AI-2-inducted and non-inhibited bioluminescence. For the calculation was used bioluminescence level at 2.5 hr after start of the growth.
(§1) Luminescence was monitored by Lumac/3M Biocounter M2010, Netherlands. Culture density was measured as CFU on selective solid LM (L-marine) medium per ml of culture. Relative luminescence (“bioluminescence” in figures) was calculated as quotient of luminescence and culture density and expressed in relative light units (RLU, count/10^6 CFU).
(§2) Fold induction was calculated as relation between induced by BNO-1 and not induced relative luminescence. A measure of inhibition was defined as relation of induced by AI-2 relative luminescence in the presence and in the absence of BNO-2.

[4] = tested on: AI-2 reporter strain Vibrio harveyi BB170; experiment: Induction of bioluminescence in the AI-2 reporter strain (quorum sensing); type: cell-based
Method: Bright overnight culture was diluted 1:5000 and the bioluminescence was traced along growth of the diluted bacterial culture. BNO-1 in tested concentrations was added at start of the bacterial growth. For calculation of fold induction was used the bioluminescence levels at 3 hr after start of the growth.
as §1, §2

[5] = ATCC27351, S. mutans, 24 hours, 37° C.

Row | Compound | antibacterial efficacy against S. mutans (MIC based, in words) (S. mutans ATCC 27351) | MIC Range (S. mutans ATCC 27351; S. mutans, 24 hours, 37° C.) | MIC (S. mutans ATCC 27351; [5]) [µM] | further results
1 | CCCCB1OC(c2ccccc2)C(C)N1C (stereo not drawn) [BNO5, 2-butyl-3,4-dimethyl-5-phenyl-1,3,2-oxazaborolidine] | most active | 0.26 to 0.80 mM | 530 (≈ 123 µg/mL) | 
2 | CC1NB(c2ccccc2)OC1c1ccccc1 (stereo not drawn) [BNO4, 4-methyl-2,5-diphenyl-1,3,2-oxazaborolidine] |  | 0.90 to 1.75 mM | 1330 (≈ 315 µg/mL) | 
3 | CCCCB1NC(C)(C)CO1 [BNO3, 2-butyl-4,4-dimethyl-1,3,2-oxazaborolidine] |  | 2.25 to 4.5 mM | 3380 (≈ 524 µg/mL) | reduction of bacterial capability to adhere to hydroxyapatite surface [1]: 63%; share of ate-complex (11B NMR peak at 6.8 ppm) [2]: 10%; share of intermediate (11B NMR peak at 24.868 ppm) [2]: 90%
4 | [(2-)-N,O,O′[2,2′-Iminobis[ethanolato]]]-2-phenylboron [BNO8] | weakest activity | 4.5-9. mM |  | MIC Mean (S. mutans ATCC 27351; S. mutans, 24 hours, 37° C.): 6750 µM
5 | CC1(C)COB(c2ccccc2)N1 [BNO2, 4,4-dimethyl-2-phenyl-1,3,2-oxazaborolidine] |  | 2 to 10 mM | 6000 (≈ 1050 µg/mL) | promotion of bacterial adhesion [1]: 37%; inhibition of the ability of exogenous AI-2 to induce bioluminescence [3]: strongly inhibited
6 | [(2-)-N,O,O′[2,2′-Iminobis[ethanolato]]]-2-n-butylboron [BNO7] | weakest activity | 4.5 to 9.0 mM |  | MIC Mean (S. mutans ATCC 27351; S. mutans, 24 hours, 37° C.): 6750 µM
7 | CC1C(c2ccccc2)OB(c2ccccc2)N1C (stereo not drawn) [BNO1, 3,4-dimethyl-2,5-diphenyl-1,3,2-oxazaborolidine] | most active | 0.77 to 2.33 mM |  | MIC (S. mutans ATCC 27351; ATCC27351, 24 h): 1550 µM (≈ 389 µg/mL); induction of bioluminescence of Vibrio harveyi BB170 ([4]; dose dependent, sensor 1− sensor 2+): induced; induction of bioluminescence in mutants with sensor 2− ([4]; sensor 2− mutants): do not react
8 | CCCCB1NC(C)C(c2ccccc2)O1 (stereo not drawn) [BNO6, 2-butyl-4-methyl-5-phenyl-1,3,2-oxazaborolidine] |  | 1.90 to 3.75 mM | 2830 (≈ 614 µg/mL) | 
